Results reported in ChEMBL document CHEMBL1140950, “Discovery of (2S,4R)-1-(2-aminoacetyl)-4-benzamidopyrrolidine-2-carboxylic acid hydrochloride (GAP-134)13, an orally active small molecule gap-junction modifier for the treatment of atrial fibrillation” (J Med Chem, 2009).
Activity calls are given as the source filed them. The rule behind the calls is not given here. Where a SMILES comes first, the peptide text is derived from it. [ ]: non-standard residue; d: D form. dHyp = O=C(O)[C@H]1C[C@H](O)CN1

Assays:
[1] = test system: Mus musculus; assay: Antiarrhythmic effect in calcium chloride-induced CD1 mouse arrhythmia model assessed as gap-junction intracellular communication re-establishment-mediated prolongation of time to onset of cardiac conduction block at 10 mg/kg, po relative to control; type: functional, organism-based; set-up: dose 10 mg/kg; conditions: Heart
[2] = test system: Mus musculus; assay: Antiarrhythmic effect in calcium chloride-induced CD1 mouse arrhythmia model assessed as gap-junction intracellular communication re-establishment-mediated prolongation of time to onset of cardiac conduction block at 10 pmol/kg, iv relative to control; type: functional, Heart
[3] = test system: Cardiac atrium; assay: Prevention of metabolic stress-induced conduction velocity slowing in Sprague-Dawley rat atrium at 10 uM by microelectrode based assay; type: functional, tissue-based
[4] = test system: Mus musculus; assay: Antiarrhythmic effect in calcium chloride-induced CD1 mouse arrhythmia model assessed as gap-junction intracellular communication re-establishment-mediated prolongation of time to onset of cardiac conduction block at 100 pmol/kg, iv relative to control; type: functional, Heart
[5] = test system: Mus musculus; assay: Antiarrhythmic effect in calcium chloride-induced CD1 mouse arrhythmia model assessed as gap-junction intracellular communication re-establishment-mediated prolongation of time to onset of cardiac conduction block at 1 nmol/kg, iv relative to control; type: functional, Heart
[6] = test system: C6; assay: Reduction of simulated ischemia-induced calcein uptake in rat C6 cells; type: functional, cell-based
[7] = test system: Mus musculus; assay: Antiarrhythmic effect in calcium chloride-induced CD1 mouse arrhythmia model assessed as gap-junction intracellular communication re-establishment-mediated prolongation of time to onset of cardiac conduction block at 1 pmol/kg, iv relative to control; type: functional, Heart
[8] = Half life in rat at 0.5 mg/kg, iv; type: ADME, organism-based; set-up: dose 0.5 mg/kg, route intravenous; conditions: in vivo
[9] = (§1) Oral bioavailability in rat at 5 mg/kg; type: ADME, organism-based; conditions: in vivo
[10] = Cmax in rat at 5 mg/kg, po; type: ADME, organism-based; set-up: dose 5 mg/kg, route oral; conditions: in vivo
[11] = Volume of distribution at steady state in rat at 0.5 mg/kg, iv; type: ADME, organism-based; set-up: dose 0.5 mg/kg, route intravenous; conditions: in vivo, read-out: Vdss
[12] = (§2) AUC in rat at 5 mg/kg, po; type: ADME, organism-based, Plasma; set-up: dose 5 mg/kg, route oral; conditions: plasma
[13] = Half life in rat at 5 mg/kg, po; type: ADME, organism-based; set-up: dose 5 mg/kg, route oral; conditions: in vivo
[14] = Tmax in rat at 5 mg/kg, po; type: ADME, organism-based; set-up: dose 5 mg/kg, route oral; conditions: in vivo
[15] = Clearance in rat at 0.5 mg/kg, iv; type: ADME, organism-based; set-up: dose 0.5 mg/kg, route intravenous; conditions: in vivo
[16] = target: Voltage-gated inwardly rectifying potassium channel KCNH2 (Homo sapiens, UniProt Q12809); assay: Inhibition of human ERG
Sequence of Voltage-gated inwardly rectifying potassium channel KCNH2 (Q12809 whole entry): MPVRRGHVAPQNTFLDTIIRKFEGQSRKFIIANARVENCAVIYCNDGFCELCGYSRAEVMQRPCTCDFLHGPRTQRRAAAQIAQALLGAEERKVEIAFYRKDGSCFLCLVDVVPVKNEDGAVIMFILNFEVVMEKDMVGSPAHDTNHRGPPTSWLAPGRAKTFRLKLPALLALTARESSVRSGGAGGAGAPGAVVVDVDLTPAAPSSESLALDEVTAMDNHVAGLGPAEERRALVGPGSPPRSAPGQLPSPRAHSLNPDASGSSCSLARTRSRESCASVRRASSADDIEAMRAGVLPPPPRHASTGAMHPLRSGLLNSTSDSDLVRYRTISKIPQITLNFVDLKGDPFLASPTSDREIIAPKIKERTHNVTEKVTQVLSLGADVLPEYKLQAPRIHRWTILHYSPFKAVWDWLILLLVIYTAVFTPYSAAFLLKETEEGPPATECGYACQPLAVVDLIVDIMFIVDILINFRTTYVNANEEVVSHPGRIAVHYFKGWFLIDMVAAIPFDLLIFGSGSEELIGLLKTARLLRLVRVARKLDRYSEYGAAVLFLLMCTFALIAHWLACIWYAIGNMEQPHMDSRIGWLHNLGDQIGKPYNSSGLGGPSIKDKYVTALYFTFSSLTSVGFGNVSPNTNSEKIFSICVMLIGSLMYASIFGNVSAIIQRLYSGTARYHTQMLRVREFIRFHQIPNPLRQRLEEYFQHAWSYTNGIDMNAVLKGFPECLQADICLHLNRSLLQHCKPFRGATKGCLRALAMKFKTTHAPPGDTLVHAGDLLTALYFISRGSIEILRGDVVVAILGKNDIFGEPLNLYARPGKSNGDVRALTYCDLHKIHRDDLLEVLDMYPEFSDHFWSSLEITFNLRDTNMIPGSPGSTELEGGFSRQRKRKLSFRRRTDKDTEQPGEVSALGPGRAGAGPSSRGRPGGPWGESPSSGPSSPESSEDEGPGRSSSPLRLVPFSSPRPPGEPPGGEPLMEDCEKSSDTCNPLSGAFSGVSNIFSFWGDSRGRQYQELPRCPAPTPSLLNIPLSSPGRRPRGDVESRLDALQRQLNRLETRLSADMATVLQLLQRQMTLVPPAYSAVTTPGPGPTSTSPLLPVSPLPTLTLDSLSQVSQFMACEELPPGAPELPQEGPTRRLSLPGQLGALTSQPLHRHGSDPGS

[17] = test system: C6; assay: Reduction of simulated ischemia-induced cell swelling in rat C6 cells; type: functional, cell-based
[18] = target: Cytochrome P450 2D6 (Homo sapiens, UniProt P10635); assay: Inhibition of CYP2D6 at 3 uM; type: ADME
Sequence of Cytochrome P450 2D6 (P10635 whole entry): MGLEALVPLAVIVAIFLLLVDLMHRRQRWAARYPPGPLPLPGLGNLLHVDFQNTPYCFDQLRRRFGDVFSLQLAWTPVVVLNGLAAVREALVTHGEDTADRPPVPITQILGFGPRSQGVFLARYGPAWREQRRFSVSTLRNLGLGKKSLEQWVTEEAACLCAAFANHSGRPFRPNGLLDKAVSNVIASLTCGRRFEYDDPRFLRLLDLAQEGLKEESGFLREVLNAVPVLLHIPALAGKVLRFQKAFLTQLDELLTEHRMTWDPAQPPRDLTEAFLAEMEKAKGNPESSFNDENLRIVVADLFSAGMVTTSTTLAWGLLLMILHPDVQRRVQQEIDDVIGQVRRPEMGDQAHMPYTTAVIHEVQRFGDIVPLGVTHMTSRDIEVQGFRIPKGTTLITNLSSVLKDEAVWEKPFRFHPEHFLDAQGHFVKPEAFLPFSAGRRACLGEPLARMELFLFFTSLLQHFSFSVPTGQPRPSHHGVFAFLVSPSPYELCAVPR

[19] = Oral bioavailability in dog; type: ADME, organism-based, Canis lupus familiaris; conditions: in vivo
[20] = target: Cytochrome P450 3A4 (Homo sapiens, UniProt P08684); assay: Inhibition of CYP3A4 at 3 uM; type: ADME
Sequence of Cytochrome P450 3A4 (P08684 whole entry): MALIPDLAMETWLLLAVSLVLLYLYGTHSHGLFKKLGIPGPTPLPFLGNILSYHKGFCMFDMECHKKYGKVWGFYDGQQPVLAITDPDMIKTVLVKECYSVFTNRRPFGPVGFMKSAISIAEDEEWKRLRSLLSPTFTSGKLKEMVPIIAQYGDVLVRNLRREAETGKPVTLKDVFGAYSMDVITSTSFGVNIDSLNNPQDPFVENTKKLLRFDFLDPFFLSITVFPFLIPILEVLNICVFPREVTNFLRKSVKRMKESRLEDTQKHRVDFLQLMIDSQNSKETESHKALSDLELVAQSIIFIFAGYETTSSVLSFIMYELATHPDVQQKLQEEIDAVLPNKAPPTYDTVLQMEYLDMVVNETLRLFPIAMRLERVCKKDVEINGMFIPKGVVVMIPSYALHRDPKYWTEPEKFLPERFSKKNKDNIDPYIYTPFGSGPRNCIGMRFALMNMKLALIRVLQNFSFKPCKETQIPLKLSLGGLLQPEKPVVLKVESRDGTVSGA

[21] = test system: Mus musculus; assay: Antiarrhythmic effect in calcium chloride-induced po dosed CD1 mouse arrhythmia model assessed as gap-junction intracellular communication re-establishment-mediated prolongation of time to onset of cardiac conduction block relative to control; type: functional, Heart
[22] = target: Cytochrome P450 2C9 (Homo sapiens, UniProt P11712); assay: Inhibition of CYP2C9 at 3 uM; type: ADME
Sequence of Cytochrome P450 2C9 (P11712 whole entry): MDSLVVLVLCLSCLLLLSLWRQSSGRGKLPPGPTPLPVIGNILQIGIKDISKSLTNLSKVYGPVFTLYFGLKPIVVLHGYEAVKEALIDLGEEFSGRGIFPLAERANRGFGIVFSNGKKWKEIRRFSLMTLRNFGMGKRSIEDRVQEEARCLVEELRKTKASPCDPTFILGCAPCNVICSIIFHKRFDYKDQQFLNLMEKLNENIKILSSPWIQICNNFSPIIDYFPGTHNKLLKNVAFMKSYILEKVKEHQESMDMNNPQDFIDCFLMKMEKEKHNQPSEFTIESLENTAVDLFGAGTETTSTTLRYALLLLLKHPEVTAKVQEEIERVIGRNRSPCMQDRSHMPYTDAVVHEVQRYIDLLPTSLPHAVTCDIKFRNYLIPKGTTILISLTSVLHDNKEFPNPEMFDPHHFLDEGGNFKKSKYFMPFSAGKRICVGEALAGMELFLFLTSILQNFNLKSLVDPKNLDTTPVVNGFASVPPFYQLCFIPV

[23] = test system: Rattus norvegicus; assay: as §1; type: ADME, organism-based; conditions: in vivo
[24] = test system: Rattus norvegicus; assay: as §2; type: ADME, organism-based, Plasma; set-up: dose 5 mg/kg, route oral; conditions: in vivo

Row | SMILES | Activity [2] [%] | Activity [3] | Activity [4] [%] | Activity [5] [%] | Activity [7] [%] | half-life [8] [min] | Cmax [10] [ng/mL] | Vd [11] [L/kg] | half-life [13] [min] | Tmax [14] [min] | further results
1 | CC(=O)N[C@H](Cc1ccc(O)cc1)C(=O)N1CCC[C@@H]1C(=O)N1C[C@@H](O)C[C@@H]1C(=O)NCC(=O)N[C@H](C)C(=O)NCC(N)=O [ROTIGAPTIDE] (Ac-[dY][dP][dHyp]G[dA]G-NH2) | 207 | Active | 152 | 156 | 199 | – | – | – | – | – | Activity [1]: Active; Activity [6]: Dose-dependent effect
2 | N[C@H](CCCCNC(=O)CNC(=O)c1ccc([N+](=O)[O-])cc1)CC(=O)O | 206 | – | 197 | 201 | 124 | – | – | – | – | – | –
3 | COc1ccc(C(=O)NCC(=O)NCCCC[C@@H](N)CC(=O)O)cc1 | 133 | Active | 128 | 164 | 220 | 18 | 28 | 0.4 | 90 | 45 | bioavailability [9]: 2%; AUC [12]: 71 ng·h/mL; clearance [15]: 31 mL/min/kg
4 | CC(=O)N[C@@H](C)C(=O)NCC(=O)N[C@@H](CC(N)=O)C(=O)N[C@@H](Cc1ccc(O)cc1)C(N)=O (Ac-AGNY-NH2) | 157 | – | 205 | 136 | 228 | – | – | – | – | – | –
5 | NCC(=O)NCCCC[C@@H](NC(=O)c1ccc([N+](=O)[O-])cc1)C(=O)O | 177 | – | 151 | 158 | 192 | – | – | – | – | – | –
6 | Cl.NCC(=O)N1C[C@H](NC(=O)c2ccccc2)C[C@H]1C(=O)O | 207 | Active | 148 | 173 | 162 | 48 | 105 | 0.61 | 114 | 30 | Activity [16]: Not Active; bioavailability [9]: 9%; Activity [17]: Active; Activity [18]: Not Active; AUC [12]: 360 ng·h/mL; bioavailability [19]: 21%; Activity [6]: Dose-dependent effect; Activity [20]: Not Active; Activity [21]: 200%; Activity [22]: Not Active; clearance [15]: 22 mL/min/kg
7 | NC(=O)C[C@H](NC(=O)CO)C(=O)N[C@@H](Cc1ccc(O)cc1)C(N)=O | 232 | Active | 203 | 187 | 188 | 18 | 31.5 | 0.9 | 30 | 24 | F [23]: 0.7%; AUC [24]: 36 ng·h/mL
